Patent US20140364454A1, “METAL-CHELATING COMPOUNDS HAVING AT LEAST ONE POLYAMINO CHAIN” (UNIVERSITE DE RENNES I, priority 2011, published 2014)

Experiments:
[1] = system: CHO cells; test: Cytotoxic effect on CHO cells, LDH release in supernatants; conditions: hamster, 72 h
Experimental: The in vitro efficacy of different Quilamines was tested on a wild cell line (CHO) of hamster ovarian cells having PTS and a mutant cell line CHO-MG without PTS. The two cell types CHO and CHO-MG were treated, 24 hours after being seeded in 96-well microplates, by concentrations of different Quilamines ranging from 0.1 to 400 micromoles per liter. The cytostatic (anti-proliferative) effects and cytotoxic effects of Quilamine after 72 hours' treatment of the cells were assessed respectively by counting cell nuclei after DNA marking by the Hoechst 33342 fluorescent intercalant dye and by analysis of membrane damage detected by the dosing of the lactate dehydrogenase activity (LHD) in the supernatants.
A comparison was made of the cytostatic or anti-proliferative action and the cytotoxic action for 72 h of treatment by Quilamine HQ1-44 and 8-hydroxyquinoline and ICL670, on the CHO cell lines in the presence and without the presence of exogenous iron, in the form of Fe(III) citrate in a concentration of 20 micromoles per liter. The results obtained are shown in FIG. 4, FIG. 4A relating to the results on cell viability and FIG. 4B relating to the results on cell toxicity.

[2] = system: Caco-2 cells; test: LDH release of Caco-2 cells; type: cell-based, human; conditions: for influence of exogenous iron on the cytotoxic effect: Caco-2, after addition of exogenous iron; for % LDH/control 10 μM: Caco-2 J4, 10 μM; for % LDH/control 100 μM: Caco-2 J4, 100 μM
Experimental: The action of Quilamines on the cell viability was analyzed on enterocyte cells of the Caco-2 tumor cell line derived from human colon carcinoma and compared with the action of ICL670 in the presence or absence of exogenous iron, after activation (DFMO) or competitive inhibition by spermidine, of the PTS. The operating conditions used are identical to those used for CHO/CHO-MG and HepG2 cells.
As in the case of the other cell lines in proliferative phase presented here above, the dose-effect curves of the action of the Quilamines on the number of viable cells (number of nuclei) are biphase curves with a cytostatic constituent for concentration values of below 30 micromoles per liter and a cytotoxic constituent with release of LDH for concentration values above 30 micromoles per liter. Only this second cytotoxic constituent is observed when the cells of the Caco-2 cell line are treated after confluence (stopping of the proliferation).

[3] = system: L-ferritin and transferrin receptor genes; test: RT-qPCR of iron metabolism genes in Caco-2 cells; type: cell-based, human; conditions: Caco-2 in proliferative phase, 10 micromoles per liter, 72 hours
Experimental: After treatment for 72 hours of the Caco-2 cells in proliferative phase by the Quilamine HQ1-44 and ICL670 in a concentration of 10 micromoles per liter, an analysis is carried out by real-time polymerase chain reaction (RT-qPCR) technique of the expression of the two main genes for regulating intra-cell iron metabolism, that of L-ferritin, the iron-storing protein, and that of the transferrin receptor, which is the iron-importing protein of the membrane. The DNAc (complementary dioxyribonucleic acid) synthesized during the reverse transcription are amplified by the qPCR (quantity of polymerization chain reaction) to quantify the expression of the mNRA (messenger ribonucleic acid) of the genes involved in iron metabolism.

[4] = system: HepG2 cells; test: Anti-proliferative effect on HepG2 cells (nuclei count or SDH activity); type: cell-based, human; conditions: HepG2, presence of exogenous iron
[5] = Continuous variation method, absorption of the Quilamine-Fe(III) complex at 580 nm; type: physicochemical; conditions: physiological pH
Experimental: At physiological pH, the Quilamine forms a Quilamine-Fe(III) complex preferably having a ligand:metal stoichiometry of 2/1. The ligand:metal stoichiometry can for example be determined by the continuous variation method, using the characteristic transition in the absorption spectrum of the Quilamine-Fe(III) complex at 580 nm, for chelator and iron concentrations ranging from 0 to 500 micromoles per liter.
The interaction of Quilamine HQ1-44 with iron (Fe3+) was assessed by means of a characteristic transition at 580 nm, observed in the absorption spectrum of the complex of Quilamine HQ1-44 with Fe(III). The continuous variation method consist in measuring the quantity of complex formed between Quilamine and Fe(III) deduced from the value of absorption at 580 nm, in bringing about a variation of the ratio of the concentrations in Quilamine/Quilamine+Fe(III) for a total concentration of Quilamine+Fe(III) that is constant and equal to 100 micromoles per liter (Tris/HCl buffer 100 millimoles per liter, pH 7.4).

[6] = Potentiometry: stability constants and pFe3+ of the iron complex; type: physicochemical
Experimental: The complexation affinity of Quilamine with the metal ion in the organism reflects the chelating capacity or chelating power of Quilamine. This affinity can be assessed by measuring the value of pW corresponding to −log of the concentration in free metal ion W, i.e. non-complexated by the Quilamine for a ratio of respective concentrations of Quilamine (10 micromoles per liter) and metal ion (1 micromole per liter) equal to 10, at 25° C. and pH 7.4. The higher the value of pW, the greater the affinity of Quilamine with metal ion. The affinity of Quilamine with iron in its ferric form (Fe(III)) and its ferrous form (Fe(II)) is measured respectively by pFe^3+ and pFe^2+ at physiological pH (pH=7.4), at 25° C.
Potentiometry measurements were made in thermostated titration cells at 25±0.1° C., using a Metrohm 702 SM Titrino titrator connected to a Metrohm 6.0233.100. The ligand solution is prepared in a concentration of ˜1.5×10^−3 moles per liter, the solution of Fe^3+ is made from FeCl3 and titrated by complexation with a standard solution of EDTA (ethylenediaminetetracetic acid). The sample for the measurement contained approximately 0.03 millimoles per liter of ligand in a volume of 30 ml where the ionic strength is maintained at 0.1 mole per liter in using KNO3 as a support electrolyte. During the titrations, Fe^3+ is added to 0.45 or 0.9 equivalents of ligand. Each titration consists of 150-200 equilibrium points with pH varying from 2.0 to 11.5, and is repeated at least twice. The thermodynamic constants are computed with the software […] and the speciation diagram of the species is done by the Hyss program.

SMILES	chelator concentration giving cytotoxic effect with release of LDH [1]	influence of exogenous iron on the cytotoxic effect [2]	% LDH/control 10 μM [2]	% LDH/control 100 μM [2]	expression of the genes for L-ferritin and the transferrin receptor [3]	influence of exogenous iron on the cytostatic effect [4]	ligand/iron stoichiometry of the complex with Fe(III) [5]	Constant of stability (log K), species FeL ([6]; 25.0° C., I = 0.1 M in KNO3)	Constant of stability (log K), species FeL2 ([6]; 25.0° C., I = 0.1 M in KNO3)	Constant of stability (log K), species FeL2H ([6]; 25.0° C., I = 0.1 M in KNO3)	Constant of stability (log K), species FeL2H2 ([6]; 25.0° C., I = 0.1 M in KNO3)	Constant of stability (log K), species FeL2H3 ([6]; 25.0° C., I = 0.1 M in KNO3)	Constant of stability (log K), species FeL(OH) ([6]; 25.0° C., I = 0.1 M in KNO3)	Constant of stability (log K), species FeLH ([6]; 25.0° C., I = 0.1 M in KNO3)	Constant of stability (log K), species FeLH2 ([6]; 25.0° C., I = 0.1 M in KNO3)	pFe3+ ([6]; pH 7.4)
O=C(O)c1ccc(-n2nc(-c3ccccc3O)nc2-c2ccccc2O)cc1 [ICL670, reference compound]	over 10 micromoles per liter	inhibition	117%	130%	do not significantly modify	inhibition	–	–	–	–	–	–	–	–	–	–
NCCCCNCCCCNCc1ccc2cccc(O)c2n1 [HQ1-44, 2-[4-(4-aminobutyl)aminobutyl]aminomethylquinolin-8-ol]	–	partially inhibited	118%	287%	do not significantly modify	–	2/1	25.92	7.8	10.2	8.0	8.2	7.37	6.65	2.88	27
